“And” between values parts separate entries of the source, which are not always exact repeats. Identical values can stand only once. Like-named read-outs stand apart in the source and are kept apart here. Marks after values point to notes of the source that are not given here.
Key:
[1] = Stability of MTG in PBS receptor medium with antioxidants (DTT, ascorbic acid); format: physicochemical; conditions: 32 °C
Protocol: The drug content was analysed using HPLC (Sect. HPLC analysis) at 24, 48, 72 and 96 h.
(§1) Samples were analysed using Shimadzu liquid chromatographic system (Kyoto, Japan) with SPD-20A UV–vis detector set at 254 nm. A reverse phase ZORBAX Eclipse Plus C18 column (Agilent Technologies, 150 × 4.6 mm ID × 3.5 μm) coupled with a C18 guard column (Phenomenex SecurityGuard™, 4 × 3.0 mm ID × 5 μm) was employed as the stationary phase. A gradient elution method with acetonitrile and 0.1%v/v of formic acid as the mobile phase (30:70 to 70:30 (v/v) over 1 min and held until 4 min; then returned to 30:70 (v/v) from 4 to 6 min and held up until 10 min) at a flow rate of 1.2 mL/min was used. The injection volume was set at 100 μL and the total run time was 10 min with a retention time of ~ 4 min. The limits of detection and quantification were 0.47 and 1.43 μg/mL for a lower concentration drug range (0.5–10 μg/mL) and 4.29 and 13.01 μg/mL for a higher concentration drug range (10–175 μg/mL), respectively. The linearity for both calibration curves was excellent (R^2 > 0.999).

[2] = Forced degradation studies of MTG; format: physicochemical; conditions: over 24 h
Protocol: Samples were taken at 6, 12 and 24 h for dissolution and/or dilution before HPLC analysis (Sect. HPLC analysis).
as §1, with “min.” for “min. The limits of detection and quantification were 0.47 and 1.43 μg/mL for a lower concentration drug range (0.5–10 μg/mL) and 4.29 and 13.01 μg/mL for a higher concentration drug range (10–175 μg/mL), respectively. The linearity for both calibration curves was excellent (R^2 > 0.999).”

[3] = In vitro skin permeation of 5%w/v MTG in single solvents (Franz diffusion cells), with infinite dose model fitting; format: in vitro ADME, porcine; conditions: for Papp at 48 h, 5 %w/v: pig, read-out: Kp (permeability coefficient) (converted)
Protocol: The in vitro permeation study was performed in triplicate using Franz diffusion cell apparatus with a diffusion area of ~ 0.8 cm^2 and a receptor volume of ~ 3 mL. The porcine skin was thawed at room temperature and cut into an appropriate size before mounting on the Franz diffusion cells. The receptor compartment was filled with PBS containing 0.02%w/v of sodium azide and a selected antioxidant. The Franz diffusion cells were placed into a water bath to maintain the skin temperature at 32 ± 0.5 °C. […] After 48-h permeation studies, the mass balance studies were performed.
as §1, with “min.” for “min. The limits of detection and quantification were 0.47 and 1.43 μg/mL for a lower concentration drug range (0.5–10 μg/mL) and 4.29 and 13.01 μg/mL for a higher concentration drug range (10–175 μg/mL), respectively. The linearity for both calibration curves was excellent (R^2 > 0.999).”
To estimate the permeation parameters (P1 and P2), the in vitro permeation data were fitted to the infinite dose model (Eq. 1) using non-linear least squares. This infinite dose model was obtained by solving the diffusion equation using Laplace transform, which was subsequently numerically inverted using Weeks method and fitted to in Python 3.13.3 (Python Software Foundation, Wilmington, DE, US).1 Q¯s=J·A/s=P1ACd/ss/P2sinhs/P2
Here, Q¯s is the cumulative amount of drug permeated, J is the permeation flux, A is the permeation area, Cd is the initial concentration, h is the membrane thickness and s is the Laplace variable. The apparent partition and apparent diffusion coefficients, P1 and P2, are related to the h and the diffusion (D) and partition (K) coefficients, as defined in Eq. 2 and Eq. 3 [32]. The goodness of fit was measured based on the coefficient of determination (R^2) and root mean square error (RMSE).2 P1=Kh 3 P2=D/h^2
The permeability coefficient (Kp), steady-state flux (Jss) and lag time (tlag) can then be calculated using Eqs. 4, 5, and 6 [33] with the estimated values of P1 and P2 from the curve fitting.4 Kp=P1P2 5 Jss=KpCd 6 tlag=h^2/6D
Other permeation parameters were determined experimentally, where A was 0.7–0.8 cm^2, h was 0.0586 cm, Cd was 50 mg/mL and the volume of drug loaded was 40 µL.

[4] = 5%w/v MTG in DMSO, receptor PBS with 0.01%w/v ascorbic acid (DMSO-AA), 48 h
[5] = 5%w/v MTG in DMSO, receptor PBS without ascorbic acid, 48 h
[6] = 5%w/v MTG in Labrasol, receptor PBS with 0.01%w/v ascorbic acid (Labrasol-AA), 48 h
[7] = 5%w/v MTG in Lauroglycol, receptor PBS with 0.01%w/v ascorbic acid (Lauroglycol-AA), 48 h
[8] = 5%w/v MTG in Maisine, receptor PBS with 0.01%w/v ascorbic acid (Maisine-AA), 48 h
[9] = 5%w/v MTG in Maisine, receptor PBS without ascorbic acid, 48 h
[10] = 5%w/v MTG in PG, receptor PBS with 0.01%w/v ascorbic acid (PG-AA), 48 h
[11] = 5%w/v MTG in PG, receptor PBS without ascorbic acid, 48 h
[12] = 5%w/v MTG in Transcutol, receptor PBS with 0.01%w/v ascorbic acid (Transcutol-AA), 48 h
[13] = 5%w/v MTG in Transcutol, receptor PBS without ascorbic acid, 48 h
[14] = 5%w/v in dimethyl sulphoxide and Transcutol, optimised receptor medium (0.01%w/v ascorbic acid in PBS)

CC[C@@H]1CN2CCc3c([nH]c4cccc(OC)c34)[C@@H]2C[C@@H]1/C(=C\OC)C(=O)OC [MTG, mitragynine]
Percentage recovery of MTG ([1]; 50 µg/mL in PBS with DTT (0.01-0.1%w/v), 96 h, lowest recovery): ~ 81%
Percentage recovery of MTG ([1]; 50 µg/mL in PBS with ascorbic acid (0.01-0.1%w/v, regardless of concentration), 96 h): > 99%
Percentage recovery of MTG ([1]; 50 µg/mL in PBS without antioxidant, after 96 h): ~ 96%
Degradation of MTG ([2]; oxidative and alkaline conditions): ~ 95%
Degradation of MTG ([2]; thermal degradation): ~ 90%
Jss (steady-state flux) [3, 4]: 0.77 ± 0.18 µg/cm^2/h and 0.77 ± 0.18^d µg/cm^2/h
P1 (apparent partition coefficient) [3, 4]: 20.35 ± 8.07 × 10^–4 cm
P2 (apparent diffusion coefficient) [3, 4]: 8.01 ± 1.91 × 10^–3 h^−1
Permeation (cumulative amount of MTG permeated) [3, 4]: 15.40 ± 2.40 µg/cm^2
tlag (lag time) [3, 4]: 21.53 ± 4.53 h
Cumulative amount of MTG permeated [3, 5]: 14.40 ± 3.34 μg/cm^2
Jss (steady-state flux) [3, 5]: 0.52 ± 0.15 µg/cm^2/h
P1 (apparent partition coefficient) [3, 5]: 8.90 ± 5.52 × 10^–4 cm
P2 (apparent diffusion coefficient) [3, 5]: 13.40 ± 4.73 × 10^–3 h^−1
tlag (lag time) [3, 5]: 13.52 ± 4.70 h
Jss (steady-state flux) [3, 6]: 0.14 ± 0.11 µg/cm^2/h
P1 (apparent partition coefficient) [3, 6]: 6.83 ± 5.64^a × 10^–4 cm
P2 (apparent diffusion coefficient) [3, 6]: 4.33 ± 0.52 × 10^–3 h^−1
Permeation (cumulative amount of MTG permeated) [3, 6]: 1.53 ± 1.08 µg/cm^2
tlag (lag time) [3, 6]: 38.85 ± 4.39^e,f h
Permeation (cumulative amount of MTG permeated) ([3]; 5%w/v MTG in Labrasol, receptor PBS without ascorbic acid, 48 h): 1.36 ± 1.45 µg/cm^2
Jss (steady-state flux) [3, 7]: 0.11 ± 0.07 µg/cm^2/h
P1 (apparent partition coefficient) [3, 7]: 0.65 ± 0.09^a × 10^–4 cm
P2 (apparent diffusion coefficient) [3, 7]: 33.50 ± 18.62^b × 10^–3 h^−1
Permeation (cumulative amount of MTG permeated) [3, 7]: 3.65 ± 2.40 µg/cm^2
tlag (lag time) [3, 7]: 6.39 ± 4.02^e h
Permeation (cumulative amount of MTG permeated) ([3]; 5%w/v MTG in Lauroglycol, receptor PBS without ascorbic acid, 48 h): 0.77 ± 0.25 µg/cm^2
Jss (steady-state flux) [3, 8]: 0.27 ± 0.07 µg/cm^2/h
P1 (apparent partition coefficient) [3, 8]: 2.18 ± 0.48^a × 10^–4 cm
P2 (apparent diffusion coefficient) [3, 8]: 25.90 ± 8.44 × 10^–3 h^−1
Permeation (cumulative amount of MTG permeated) [3, 8]: 8.39 ± 2.61 µg/cm^2
tlag (lag time) [3, 8]: 7.05 ± 2.82^e h
Jss (steady-state flux) [3, 9]: 0.10 ± 0.09 µg/cm^2/h
P1 (apparent partition coefficient) [3, 9]: 1.89 ± 1.95 × 10^–4 cm
P2 (apparent diffusion coefficient) [3, 9]: 12.86 ± 5.15 × 10^–3 h^−1
Permeation (cumulative amount of MTG permeated) [3, 9]: 2.26 ± 1.93 µg/cm^2
tlag (lag time) [3, 9]: 14.19 ± 4.62 h
Jss (steady-state flux) [3, 10]: 0.33 ± 0.12 µg/cm^2/h
P1 (apparent partition coefficient) [3, 10]: 9.49 ± 3.95 × 10^–4 cm
P2 (apparent diffusion coefficient) [3, 10]: 7.17 ± 0.89 × 10^–3 h^−1
Permeation (cumulative amount of MTG permeated) [3, 10]: 6.06 ± 2.12 µg/cm^2 and 6.06 ± 2.13 µg/cm^2
tlag (lag time) [3, 10]: 23.50 ± 2.93 h
Cumulative amount of MTG permeated [3, 11]: 5.24 ± 2.28 μg/cm^2
Jss (steady-state flux) [3, 11]: 0.48 ± 0.37 µg/cm^2/h
P1 (apparent partition coefficient) [3, 11]: 25.55 ± 25.22 × 10^–4 cm
P2 (apparent diffusion coefficient) [3, 11]: 7.33 ± 6.13 × 10^–3 h^−1
tlag (lag time) [3, 11]: 33.85 ± 20.70 h
Jss (steady-state flux) [3, 12]: 0.46 ± 0.22 µg/cm^2/h
P1 (apparent partition coefficient) [3, 12]: 10.40 ± 4.15 × 10^–4 cm
P2 (apparent diffusion coefficient) [3, 12]: 8.76 ± 0.55 × 10^–3 h^−1
Permeation (cumulative amount of MTG permeated) [3, 12]: 10.27 ± 4.40 µg/cm^2
tlag (lag time) [3, 12]: 19.07 ± 1.17 h
Jss (steady-state flux) [3, 13]: 0.44 ± 0.18 µg/cm^2/h
P1 (apparent partition coefficient) [3, 13]: 26.94 ± 23.48 × 10^–4 cm
P2 (apparent diffusion coefficient) [3, 13]: 4.29 ± 1.70 × 10^–3 h^−1
Permeation (cumulative amount of MTG permeated) [3, 13]: 3.89 ± 1.41 µg/cm^2
tlag (lag time) [3, 13]: 44.70 ± 22.17 h
Cumulative amount of MTG permeated ([3]; 5%w/v MTG in the rest of the solvents (other than DMSO), receptor PBS without ascorbic acid, 48 h): < 4 μg/cm^2
Drug permeation ([3]; 5%w/v in Labrasol and Lauroglycol, optimised receptor medium): 1 – 4 μg/cm^2
Mitragynine permeated ([3]; 5%w/v in Maisine and propylene glycol, optimised receptor medium): 6 – 8 µg/cm^2
Mitragynine permeation [3, 14]: 10 – 15 µg/cm^2
Skin fluxes [3, 14]: 0.5 – 0.8 µg/cm^2/h
MTG amount permeated with vs without ascorbic acid in receptor medium (times higher) ([3]; Transcutol-AA and Maisine-AA vs Transcutol and Maisine, 48 h): 3–4 times
Papp at 48 h, 5 %w/v [3, 4]: 0.00425 ×10⁻⁶ cm/s
Papp at 48 h, 5 %w/v [3, 5]: 0.00291 ×10⁻⁶ cm/s
Papp at 48 h, 5 %w/v [3, 6]: 0.000775 ×10⁻⁶ cm/s
Papp at 48 h, 5 %w/v [3, 7]: 0.000631 ×10⁻⁶ cm/s
Papp at 48 h, 5 %w/v [3, 8]: 0.00151 ×10⁻⁶ cm/s
Papp at 48 h, 5 %w/v [3, 10]: 0.00183 ×10⁻⁶ cm/s
Papp at 48 h, 5 %w/v [3, 11]: 0.00266 ×10⁻⁶ cm/s
Papp at 48 h, 5 %w/v [3, 12]: 0.00257 ×10⁻⁶ cm/s
Papp at 48 h, 5 %w/v [3, 13]: 0.00247 ×10⁻⁶ cm/s

— publication PMC12507957 (Drug Delivery and Translational Research, 2025)
